The structures appear in SMILES notation. pIC50: −log10 of the molar value. Where two headings read alike, the source gives them in different places.

For assay [1], the target named is T1, ENO2 (Homo sapiens, UniProt P09104). Kind of assay: Enolase activity, NADH-linked PK/LDH coupled fluorometric assay in native lysates of human cancer cells overexpressing ENO2. More on the design: expressed in transfected cells; host or cells: D423-MG (ENO1-deleted human glioma) with ectopic ENO2. In kind it is biochemical. How it is done:
(§1) To compare the effects of isomeric mixtures of MethylSF2312 and SF2312 on Enolase activity, we measured the formation PEP coupled to the oxidation of NADH via LDH/PK on human cancer cells overexpressing ENO2 [4, 14]. […] Here, we favored the direct measurement of PEP absorbance, rather than of NADH, due to the high levels of endogenous NADH oxidase activity in bacterial lysates.
(§2) Native lysates of human cell lines were prepared using 20 mM Tris HCl, 1 mM EDTA, and 1 mM β-mercaptoethanol at pH 7.4 as described previously. Enolase activity was measured using two different methods, either by a fluorometric NADH-linked assay or a direct spectrophotometric assay via formation of PEP. In the fluorescent assay, enolase activity was measured via NADH oxidation in a pyruvate kinase–lactate dehydrogenase coupled assay as previously described. The assay is conducted in 10 mM KCl, 5 mM MgSO4, 100 mM triethanolamine at pH 7.4, with 400 µM NADH and 2 mM ADP. 2-Phosphoglycerate (2-PGA), pyruvate kinase (PK) and lactate dehydrogenase (LDH) are provided in excess, with the conversion of 2-PGA to PEP by enolase being rate limiting. PEP (with ADP) is a substrate of PK; pyruvate formed by this reaction is linked to NADH oxidation by LDH. Enolase activity is determined by measuring oxidation of NADH fluorescently by excitation at 340 nm and emission at 460 nm. The substrate concentration, if not otherwise indicated, was 5 mM 2-PGA. Fluorescence was measured using the Omega Fluorescence Plate Reader (BMG Labtech). Enolase activity was measured in native lysates of E. coli. Overnight grown saturated E. coli (DH5α) liquid culture was pelleted by centrifugation, washed and resuspended in 50 µL of lysis buffer which contains 150 mM NaCl, 50 mM Tris, 1mM EDTA, 2 mM DTT and 0.025% sodium azide. PMSF (10 mM stock solution) was then added to the lysate to make the final concentration 1 mM with 1% sodium deoxycholate. The suspension was incubated at 4 °C with constant mixing. The extract was centrifuged at 4 °C, 14,000 g for 15 min. Enolase activity in E. coli native lysates was measured directly by the appearance of PEP from 2-PGA via absorption at 240 nm. The assay medium was the same, except that all the auxiliary reagents (PK/LDH, NADH, ADP) are omitted. Assays were conducted in a 96-well plated format with the direct assay performed in UV-transmissible plates.

Assay [2] relates to D423 ENO1-deleted glioma cells. Kind of assay: Proliferation assay of glioma cell lines by crystal violet staining. It is filed as cell-based, human. The following applies: for toxicity against ENO1-deleted versus ENO1-intact glioma cells (in words): six days of treatment, D423 ENO1-deleted vs D423 ENO1-rescued and LN319 ENO1-WT. An excerpt:
The cell line D423-MG was provided by Dr. Bigner. The 1p36 homozygous deletion in D423-MG spans from the CAMTA1 to SLC25A33 genes, including ENO1. The generation of isogenic ENO1 and ENO2 ectopically rescued lines was described previously. The LN319 cell line was obtained from Cell Bank of The Department of Genomic Medicine at M.D. Anderson. Cells were routinely cultured in high glucose, glutamine, and pyruvate containing Dulbecco’s modified Eagle’s medium (DMEM) with 10% fetal bovine serum (FBS).
Cell proliferation of glioma cell lines was assayed through crystal violet staining. Cells were seeded at 1500 cells/well in 96-well plates, and after 24 h, were treated with dilution series of enolase inhibitors, with each treatment concentration in duplicate wells. At the indicated time, cells were fixed with 10% formalin and stained with crystal violet. Dye extraction was performed using 10% acetic acid solution, and absorbance was read at 595 nm.

In assay [3] the target is T1, ENO2. Kind of assay: X-ray structure of ENO2 crystals soaked with inhibitor. In kind it is binding. Further details: His tag (only implied by NiNTA purification); made in house. Particulars: apo ENO2 crystals soaked with 2 mM compound; unbiased 2Fo-Fc omit map. The procedure:
MethylSF2312 was co-crystallized with Human ENO2 to determine the configuration of the active compound in the active site. Apo crystals of ENO2 were prepared using published methods and were soaked in cryoprotectant containing the racemic mixture of MethylSF2312 for 16 h prior to freezing. The resulting co-crystal structure was resolved (Table 1), with four ENO2 homodimers in the asymmetric unit of the monoclinic crystal (PDB 5EU9).
Recombinant ENO2 protein was prepared using NiNTA affinity and size exclusion chromatography as described previously Apo crystals of Human Enolase 2 were prepared by streak seeding hanging drop solutions after mixing 0.5 μL 9.1 mg mL^−1 Enolase 2 with 0.5 μL reservoir solution (200 mM ammonium acetate, 100 mM Bis-Tris and 18–22% (w/v) PEG 3350). The hanging drops were incubated at room temperature above a 500 μL reservoir. Apo crystals were subsequently soaked overnight in 1 μL drops containing 100 mM Bis-Tis, 200 mM ammonium acetate, 32% (w/v) PEG 3350 at pH 6.5, supplemented with 2 mM racemate or pure enantiomer of MethylSF2312 compound, prior to flash freezing in liquid nitrogen. X-ray diffraction datasets were collected at 100 K using a wavelength of 1.11587 Å at the Advanced Light Source Beamline 8.3.1, equipped with ADSC Q315r detector. The diffraction images were indexed and integrated using iMOSFLM [19] and scaled using AIMLESS [20]. […]

In the next assay the target is T2, ENO1 (Homo sapiens, UniProt P06733).
T2 construct: expressed in transfected cells; host or cells: D423-MG (ENO1-deleted human glioma) with ectopic ENO1
T2 sequence (P06733 whole entry): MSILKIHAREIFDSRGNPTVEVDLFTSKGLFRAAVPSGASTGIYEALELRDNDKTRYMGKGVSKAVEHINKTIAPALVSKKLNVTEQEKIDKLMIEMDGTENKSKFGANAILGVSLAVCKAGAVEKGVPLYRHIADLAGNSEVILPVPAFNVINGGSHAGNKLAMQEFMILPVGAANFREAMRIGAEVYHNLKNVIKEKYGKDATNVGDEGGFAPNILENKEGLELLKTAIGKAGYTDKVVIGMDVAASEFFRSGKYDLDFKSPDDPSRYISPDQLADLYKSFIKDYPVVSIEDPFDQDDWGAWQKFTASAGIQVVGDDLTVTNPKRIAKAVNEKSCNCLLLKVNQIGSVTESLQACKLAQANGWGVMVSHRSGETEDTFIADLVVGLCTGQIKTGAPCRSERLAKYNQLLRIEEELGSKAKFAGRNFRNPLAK
Put plainly: Enolase activity, NADH-linked PK/LDH coupled fluorometric assay in native lysates of human cancer cells overexpressing ENO1. In kind it is biochemical. The following applies: for pIC50: lysates of D423 cells overexpressing ENO1. The procedure: We then determined Enolase inhibitory activity of (3R)-P1 and (3S)-P2 derived MethylSF2312 in native lysates from human cancer cells and E. coli overexpressing ENO1 and ENO2.
as §2, with “Assays were conducted in a 96-well plated format with the direct assay performed in UV-transmissible plates.” left out

Assay [4] addresses T3, Enolase in Escherichia coli lysates (Escherichia coli, UniProt P0A6P9).
T3 construct: Overnight grown saturated E. coli (DH5α) liquid culture was pelleted by centrifugation; endogenous in cells; host or cells: E. coli DH5α
Kind of assay: Enolase activity in E. coli native lysates, direct measurement of PEP formation at 240 nm. It is filed as biochemical. The procedure: as §1
as §2, with “The extract was centrifuged at 4 °C, 14,000 g for 15 min.” left out, “The assay medium was the same, except that all the auxiliary reagents (PK/LDH, NADH, ADP) are omitted. Assays were conducted in a 96-well plated format with the direct assay performed in UV-transmissible plates.” left out

For the next assay, the system named is E. coli (DH5α). Put plainly: Kirby Bauer disc diffusion antibiotic sensitivity testing. The following applies: for zone of inhibition at 35 µg/disc: Escherichia coli, read-out: clear zone of growth inhibition. It is filed as cell-based, Escherichia coli. How it is done: Finally, the antibiotic activities of SF2312 and MethylSF2312 were compared in E. coli using the disc diffusion method. A 7 mm filter paper disc imbued with 35 µg of either SF2312 or MethylSF2312 was placed on an E. coli lawn on Muller-Hinton Agar. […] Of note, growth inhibition was only observed with the addition of glucose-6-phosphate (G6P).
Kirby Bauer disc diffusion antibiotic sensitivity testing was performed on Mueller Hinton II Agar (BD #221275) or BBL™ Columbia Agar with 5% Sheep Blood (BD #221165). An overnight overnight-grown saturated E. coli (DH5α) liquid culture was diluted (1:50) in water and streaked on the agar plate to form a bacterial lawn. D-Glucose-6-phosphate (Sigma #G7250) was made in 100 mM stock solution and added to the diluted bacteria to achieve 2 mM final concentration right before streaking the plate. A 7 mm Whatman™ 3MM Chr Chromatography filter paper disc (Whatman # 3030-6189) was imbued with 7 µL of an aqueous solution of inhibitor, placed on the streaked agar plate and incubated overnight at 37 °C.
A general note: A growth-free zone around the sample is the usual read-out of agar diffusion tests.

[5] abbreviates: lysates of human cancer cells (D423) overexpressing ENO2, 5 mM 2-PGA, read-out: IC50 for ENO2.

T1 sequence (P09104 whole entry): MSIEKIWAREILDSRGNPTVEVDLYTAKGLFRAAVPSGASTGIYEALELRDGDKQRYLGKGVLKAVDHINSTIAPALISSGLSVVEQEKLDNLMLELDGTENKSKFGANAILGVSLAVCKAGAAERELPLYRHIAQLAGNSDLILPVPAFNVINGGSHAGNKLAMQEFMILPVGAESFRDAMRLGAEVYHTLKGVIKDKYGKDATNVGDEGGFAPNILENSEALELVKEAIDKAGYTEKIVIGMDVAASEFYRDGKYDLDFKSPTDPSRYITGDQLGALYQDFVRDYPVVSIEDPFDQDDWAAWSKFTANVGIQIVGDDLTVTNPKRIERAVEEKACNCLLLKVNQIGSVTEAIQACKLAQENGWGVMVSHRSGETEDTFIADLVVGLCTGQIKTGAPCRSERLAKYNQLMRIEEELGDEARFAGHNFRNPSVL
T3 sequence (P0A6P9 whole entry): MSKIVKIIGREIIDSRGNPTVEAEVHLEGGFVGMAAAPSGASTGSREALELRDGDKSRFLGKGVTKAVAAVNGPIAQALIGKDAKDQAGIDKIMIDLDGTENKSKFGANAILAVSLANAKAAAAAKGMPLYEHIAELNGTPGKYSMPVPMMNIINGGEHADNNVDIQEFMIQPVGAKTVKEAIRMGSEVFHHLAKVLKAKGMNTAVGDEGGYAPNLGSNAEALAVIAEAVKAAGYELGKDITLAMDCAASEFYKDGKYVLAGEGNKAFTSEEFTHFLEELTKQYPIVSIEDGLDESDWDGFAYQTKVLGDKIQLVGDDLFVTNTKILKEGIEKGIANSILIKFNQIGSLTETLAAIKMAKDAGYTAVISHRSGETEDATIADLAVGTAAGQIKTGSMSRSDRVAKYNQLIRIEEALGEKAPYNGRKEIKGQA

One may read the pIC50 as −log10 of the IC50, conventionally taken in molar units. Turning to `C[C@@]1(P(=O)(O)O)CC(O)N(O)C1=O` (stereo partly drawn) [(3R)-MethylSF2312], the negative logarithm of the IC50 (pIC50) is around 4.82 at ENO2 [1] (lysates of D423 cells overexpressing ENO2, read-out: IC50 for ENO2) and around 4.82 against ENO1. Also, the “toxicity towards ENO1-deleted glioma cells (in words)” value in assay [2] (even at 400 µM, D423 ENO1-deleted, 7 days) is given as “minimal toxicity”. The “occupancy of the ENO2 active site in the electron density map (in words)” value on ENO2 [3] is listed as “no evidence of occupancy”. The “fold less potent than (3S)-MethylSF2312” value at ENO1 (ENO1, ratio of IC50 values) was 2000 fold.
Regarding `C[C@]1(P(=O)(O)O)CC(O)N(O)C1=O` (stereo partly drawn) [(3S)-MethylSF2312], in assay [4] (E. coli lysates), the “fold greater Enolase inhibitory potency compared to (3R)-MethylSF2312” value is ~ 2000 fold. The pIC50 at ENO2 [1] (setting [5]) and at ENO1 was around 8.00 each time. Further, the “concentration exhibiting toxicity to ENO1-deleted glioma cells” value in assay [2] (D423 ENO1-deleted, 7 days, crystal violet) was ~ 2 µM. The “occupancy of the ENO2 active site in the electron density map (in words)” value on ENO2 [3] was “occupied in 3S,5S-configuration”. The “zone of inhibition (in words)” value in the assay with E. coli (DH5α) (35 µg per disc, Muller Hinton Agar and Blood Agar, with G6P, overnight 37 °C) is “distinct zone of inhibition”.
As usually defined, the zone of inhibition is the size of the clear area around the sample on an inoculated plate. For the compound `CC1(P(=O)(O)O)CC(O)N(O)C1=O` (stereo not shown) [MethylSF2312, (1,5-dihydroxy-3-methyl-2-oxopyrrolidin-3-yl)phosphonic acid], the negative-log IC50 (pIC50) in assay [4] (direct PEP absorbance at 240 nm, read-out: IC50, Enolase in E. coli lysates) was around 8.00; on ENO2 [1] (setting [5]), around 8.00. The “toxicity against ENO1-deleted versus ENO1-intact glioma cells (in words)” value in assay [2] is “selective toxicity”. Further, the zone of inhibition at 35 µg/disc in the assay on E. coli (DH5α) (7 mm disc with 35 µg, Muller-Hinton Agar, overnight, with glucose-6-phosphate) was around 24 mm.
`O=C1C(P(=O)(O)O)CC(O)N1O` (stereo not shown) [SF2312, (1,5-dihydroxy-2-oxopyrrolidin-3-yl)phosphonic acid]: the pIC50 (in assay [4]; on ENO2 [1]) was around 8.00 in each case. Moreover, the “toxicity against ENO1-deleted versus ENO1-intact glioma cells (in words)” value in assay [2] is “selective toxicity”. In addition, in the assay with E. coli (DH5α), the zone of inhibition at 35 µg/disc is around 24 mm.
